Source: patent publication US5436243A, “Aminoanthraquinone derivatives to combat multidrug resistance” (priority 1993, dated 1995)
pIC50: −log10 of the molar value. “Also recorded” adds a separate entry of the source.

Experiments:
MCF7 Adr 10 = experiment: 72 hour MTT proliferation assay, reversal of drug resistance in MCF7 Adr 10; type: cell-based, human
Procedure: (§1) In 72 hour MTT proliferation assays using the following method, compounds 1b, 1c and 1d were assessed for inhibition of Vinca alkaloid and anthracycline drug resistance in MDR MCF7. Additionally, compounds 1b and 1c were assessed for potentiation of sensitivity to Vinca alkaloid and anthracycline drugs in the parental MCF7 WT cell line.
(§2) METHOD: 5000 cells per well were plated in 100 μl of IMDM containing 10% FCS and allowed to adhere overnight. The following day the cells were treated with N-substituted 1,4-diaminoanthraquinones and exposed to graded concentrations of antineoplastic agents. 50 μl of IMDM 10% FCS containing either vehicle or N-substituted 1,4-diaminoanthraquinones at 3 times the final tested concentration was added to cells at timed intervals. The plates were incubated for 2 hours at 37° C. to allow maximal cellular accumulation of N-substituted 1,4-diaminoanthraquinones. 40 μl aliquots of IMDM 10% FCS containing either vehicle or graded concentrations of antineoplastic drugs at 5 times the final concentration were added to treatment groups. Following this addition, 10 μl of IMDM 10% FCS containing either vehicle or N-substituted 1,4-diaminoanthraquinone at 5 times the final concentration was added to each group of wells. The cells were incubated for 72 hours after treatment. At this time the viable cells in each treatment group were estimated in a colorimetric assay by adding MTT and incubating the cells at 37° C. for 3-4 hours. The media in each well was aspirated and MTT formazan was solubilized in isopropyl alcohol acidified with 0.1 N HCl. The absorbance of the solubilized formazan was quantitated using a plate reader spectrophotometer. […] The concentrations of antineoplastic drugs which inhibited proliferation by 50% (IC50's) were estimated by calculating a percentage from the ratio: antineoplastic drug treated groups/control group absorbance and plotting the dose response curve on semilog paper. The IC50 was estimated from this curve. To assess the effects of inhibition of resistance by N-substituted 1,4-diaminoanthraquinones, the percentages were calculated relative to cell groups treated with resistance modifier alone and IC50's calculated as above. A reversal factor was calculated by dividing the IC50 to the antineoplastic drug alone (Control group) by the IC50 to antineoplastic drug in cells treated with resistance modifier.

casein kinase 2 = experiment: Casein kinase 2 inhibition; type: biochemical
Excerpt: (§3) One possible explanation for stimulation of phosphorylation of P-glycoprotein and MARCKS is that 1c may activate PKC or other cellular kinases by signal transduction pathways that have not yet been identified to phosphorylate these proteins. An alternative explanation for stimulation of phosphorylation of P-glycoprotein and MARCKS is that 1c inhibits protein phosphatases.

MCF7 WT [1] = experiment: 72 hour MTT proliferation assay, potentiation of sensitivity in MCF7 WT; type: cell-based, human; conditions: MCF7 WT
Procedure: as §1, §2

[2] = tested on: UOK-39 human renal cell line; experiment: Vinblastine accumulation assay, UOK-39; type: cell-based; conditions: 10 μM, 10 nM [3H] vinblastine
Procedure: (§4) These cell lines are models of intrinsic resistance.
(§5) [^3 H] vinblastine was added to a final concentration of 10 nM and the cells were incubated for 2.5 hours. At this time, the cells were washed 3 times in ice cold PBS and lysed in buffer containing 0.1% Triton X-100.

calmodulin kinase = experiment: Calmodulin kinase inhibition; type: biochemical
Excerpt: as §3

[3] = biological target: T1, P-glycoprotein in MCF7 Adr 10 membrane vesicles (Homo sapiens, UniProt P08183); experiment: biochemical; conditions: read-out: decrease of specific binding of [3H] VLB
other phosphoproteins = experiment: Overall phosphoprotein changes in cell extracts; type: cell-based
Excerpt: as §3

[4] = tested on: A704 human renal cell line; experiment: Vinblastine accumulation assay, A704; type: cell-based; conditions: 10 μM, 10 nM [3H] vinblastine
Procedure: as §4, §5

PKC = experiment: Micellar PKC screening assay; type: biochemical
Excerpt: The N-substituted diaminoanthraquinone, 1b, (1,4-bis-[[3'-(diethylamino)propyl]amino]anthraquinone), was identified as a PKC inhibitor in the micellar PKC screening assay and in platelets. […] Spectrophotometric analysis of 1b and lc indicated they were excellent chromophores with absorbance maxima at 648 and 600 nm in chloroform, respectively, and extinction coefficients of approximately 20,000. At these wavelengths, there was minimal absorbance by cellular components contained in the chloroform phase. These properties of 1b and 1c were utilized to determine the time course of accumulation of these compounds in MDR MCF7 Adr 10 cells.
The activities of 1a, 1b, 1c and 1d and mitoxantrone, an anthraquinone antineoplastic drug, were evaluated in vinblastine drug accumulation assays performed by the following method. […] Mitoxantrone was identified as a PKC inhibitor in miceliar PKC assays. Compound 1d (1,4-bis-[[2-(4-morpholino)ethyl]amino]anthraquinone) was only evaluated in cellular studies.

[5] = [3H] VLB binding to MCF7 WT membrane vesicles; set-up: species or system human; conditions: MCF7 WT membrane vesicles
Procedure: METHOD: Membrane vesicles from sensitive and MDR MCF7 were prepared by nitrogen cavitation and isolated by centrifugation in discontinuous sucrose gradients. […] In the presence of 100 nM [^3 H] VLB and ATP, total and nonspecific binding of [^3 H] VLB (experimentally defined as binding in the presence of a 100 μM unlabeled VLB) was measured. Association of [^3 H] […] In contrast, association of [^3 H] […] VLB with MCF7 WT vesicles.

mice = experiment: Preliminary animal toxicity studies; type: in vivo; conditions: 400 mg/kg
[6] = tested on: catalytic subunits of protein kinase A; experiment: Protein kinase A catalytic subunit inhibition; type: biochemical
Excerpt: as §3

[7] = biological target: T1, P-glycoprotein in MCF7 Adr 10 membrane vesicles
MCF7 WT [8] = experiment: Tumor cell clonogenic assay, MCF7 WT; type: cell-based, human
Procedure: The tumor cell clonogenic assays measure clonal proliferation of tumor cells. In this assay, 300-500 cells are plated in 10 cm^2 wells, allowed to adhere overnight, and are treated the following day. Tumor cell colonies were counted after 10-12 days of culture. […] The IC50's are calculated as described above for the MTT proliferation assays.

T1 sequence (P08183 whole entry): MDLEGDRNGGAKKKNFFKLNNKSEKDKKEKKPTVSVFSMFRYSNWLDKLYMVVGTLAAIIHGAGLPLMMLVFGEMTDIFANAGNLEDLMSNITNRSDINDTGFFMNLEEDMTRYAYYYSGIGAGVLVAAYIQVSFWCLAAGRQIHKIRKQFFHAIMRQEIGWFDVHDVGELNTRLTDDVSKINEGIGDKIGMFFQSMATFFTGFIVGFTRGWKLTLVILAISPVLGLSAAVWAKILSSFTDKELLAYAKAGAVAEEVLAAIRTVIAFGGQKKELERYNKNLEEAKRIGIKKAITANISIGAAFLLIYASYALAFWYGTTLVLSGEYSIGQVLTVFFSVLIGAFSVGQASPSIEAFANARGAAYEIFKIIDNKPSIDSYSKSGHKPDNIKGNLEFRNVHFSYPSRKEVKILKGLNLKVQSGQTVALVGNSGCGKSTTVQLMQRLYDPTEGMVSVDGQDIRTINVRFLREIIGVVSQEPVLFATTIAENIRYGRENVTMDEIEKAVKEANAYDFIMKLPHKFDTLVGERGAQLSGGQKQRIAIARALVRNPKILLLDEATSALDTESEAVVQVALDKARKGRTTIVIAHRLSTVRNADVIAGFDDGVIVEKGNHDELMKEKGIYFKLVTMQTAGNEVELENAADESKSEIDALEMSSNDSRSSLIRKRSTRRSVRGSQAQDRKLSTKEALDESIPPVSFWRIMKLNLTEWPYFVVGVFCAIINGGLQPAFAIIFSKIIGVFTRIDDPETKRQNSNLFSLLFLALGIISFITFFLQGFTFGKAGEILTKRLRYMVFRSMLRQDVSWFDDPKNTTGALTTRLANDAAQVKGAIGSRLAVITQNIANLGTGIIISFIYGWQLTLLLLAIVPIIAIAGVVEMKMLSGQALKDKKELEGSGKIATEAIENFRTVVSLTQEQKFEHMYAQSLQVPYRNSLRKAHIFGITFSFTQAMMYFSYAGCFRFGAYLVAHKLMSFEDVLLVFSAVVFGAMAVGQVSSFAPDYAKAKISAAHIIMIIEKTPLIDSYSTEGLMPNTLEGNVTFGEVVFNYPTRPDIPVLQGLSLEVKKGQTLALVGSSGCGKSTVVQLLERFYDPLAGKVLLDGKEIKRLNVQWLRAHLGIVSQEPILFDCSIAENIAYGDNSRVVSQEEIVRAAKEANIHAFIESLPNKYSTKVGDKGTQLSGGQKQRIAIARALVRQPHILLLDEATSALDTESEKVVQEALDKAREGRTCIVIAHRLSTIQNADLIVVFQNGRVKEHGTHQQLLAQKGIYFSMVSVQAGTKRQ

With `O=C1c2ccccc2C(=O)c2c(NCCCN3CCOCC3)ccc(NCCCN3CCOCC3)c21` [Compound 1c, 1,4-bis-[[3'(4-morpholino)propyl]amino]anthraquinone] the “inhibition of Vinca alkaloid drug resistance” value (MCF7 Adr 10) was “inhibit Vinca alkaloid drug resistance at nanomolar concentrations”, the “inhibition of drug resistance / MDR phenotype” value (MCF7 Adr 10; MCF7 Adr 10) was “most potent inhibitor of the MDR phenotype in the MCF7 Adr 10 cell line; also recorded: more potent MDR phenotype inhibitor than 1d” and the “Reversal Factor (VCR)” value (MCF7 Adr 10; [1c] 0.1 μM) was 2.3. For the same compound, the “Reversal Factor (VLB)” value (MCF7 Adr 10; [1c] 0.1 μM) was 2.2, the “Reversal Factor (VCR)” value (MCF7 Adr 10; [1c] 0.25 μM) was 5.0 and the “Reversal Factor (VLB)” value (MCF7 Adr 10; [1c] 0.25 μM) was 3.5. For the same compound, the “Reversal Factor (ADR)” value (MCF7 Adr 10; [1c] 0.5 μM) was 2.0, the “Reversal Factor (DNR)” value (MCF7 Adr 10; [1c] 0.5 μM) was 1.9 and the “Reversal Factor (VCR)” value (MCF7 Adr 10; [1c] 0.5 μM) was 10.4. The “Reversal Factor (VLB)” value (MCF7 Adr 10; [1c] 0.5 μM) was 8.5, the “Reversal Factor (ADR)” value (MCF7 Adr 10; [1c] 1.0 μM) was 3.3 and the “Reversal Factor (DNR)” value (MCF7 Adr 10; [1c] 1.0 μM) was 3.2. For the same compound, the “Reversal Factor (VCR)” value (MCF7 Adr 10; [1c] 1.0 μM) was 24.8, the “Reversal Factor (VLB)” value (MCF7 Adr 10; [1c] 1.0 μM) was 9.2 and the “average cell growth in the presence of 1c alone, of the vehicle control” value (MCF7 Adr 10; test concentrations, n=14, 4320 min) was “greater than 86%”. For the same compound, the “casein kinase 2 inhibitory activity” value (casein kinase 2) was “did not inhibit”, the “effect on toxicity of vincristine in drug sensitive cells” value (MCF7 WT [1]) was “enhances toxicity of vincristine in drug sensitive cells” and the “Reversal Factor (VCR)” value (MCF7 WT [1]; [1c] 1.0 μM) was 1.9. For the same compound, the “vinblastine accumulation relative to verapamil” value [2] was “comparable or superior to verapamil activity”, the “calmodulin kinase inhibitory activity” value (calmodulin kinase) was “did not inhibit” and the inhibition at 5 µM [3] was 29%. For the same compound, the inhibition at 10 µM [3] was 42%, the inhibition at 25 µM [3] was 69% and the “phosphorylation of other phosphoproteins” value (other phosphoproteins) was “did not significantly alter phosphorylation of other phosphoproteins”. The “vinblastine accumulation relative to verapamil” value [4] was “comparable or superior to verapamil activity”, the “PKC activity in micellar PKC screening assay” value (PKC) was “marginal PKC inhibitory activity” and the “effect on specific binding of [3H] VLB” value [5] was “no effect”. For the same compound, the toxicity in mice (mice) was “not toxic at 400 mg/kg in mice”, the “protein kinase A inhibitory activity” value [6] was “did not inhibit” and the “effect on non-specific binding of [3H] VLB” value [7] was “no effect”. The pIC50 (MCF7 WT [8]; Homo sapiens, MCF7, tumor cell clonogenic assay, 10-12 days, read-out: Continuous Exposure IC50, MCF7 WT) was 6.10 and the “antiproliferative effect relative to human CFU-GM” value (MCF7 WT [8]; sensitive cancer cells, clonal proliferation assays) was “approximately 10 times”.
